Assay results as given in patent US11833159B2, “Non-hormonal steroid modulators of NF-kB for treatment of disease” (ReveraGen BioPharma, Inc., priority 2008, dated 2023).

Tests used:
mdx mice [1] = assay: mdx mouse model: histological evaluation (H&E) of gastrocnemius muscle; assay type: in vivo; settings: 3 months per oral in feed, Examples 20 and 40 mg/kg/day; for Inflammation of skeletal muscle (H&E histology): in comparison to untreated and prednisolone treated mdx mice; for Degeneration of skeletal muscle (H&E histology) / Regeneration / regenerating muscle fibers (H&E histology): prednisolone 5 mg/kg/day
Protocol: (§1) Separate groups (n=12-14) of mdx mice were treated with prednisolone (5 mg/kg/day; per oral in feed), Example 1 (20 and 40 mg/kg/day; per oral in feed) and Example 2 (20 and 40 mg/kg/day; per oral in feed) for 3 months. All mice underwent 30 min biweekly treadmill exercise during the treatment duration to unmask the mild disease phenotype of mdx mouse model.
Hematoxylin and Eosin staining of gastrocnemius muscle of untreated mdx mice show significant degeneration and inflammation.

[2] = In vivo mdx mouse model of dystrophy: body weight and muscle mass; settings: 5 mg/kg/day per oral in feed, at 33.8 weeks age, P<0.05
Protocol: as §1

mdx mice [3] = assay: mdx mouse model: in vitro force contractions of EDL muscle; assay type: in vivo; settings: 5 mg/kg/day per oral in feed
Protocol: as §1
The distal tendon of the extensor digitorum longus (EDL) muscle was tied securely to the lever arm of a servomotor/force transducer (model 305B, Aurora Scientific, Richmond Hill, ON, Canada) and the proximal tendon to a tissue clamp. Muscles were stimulated between two platinum electrodes. […] The muscle length was then measured with calipers and after removal of the muscle from the bath the mass of the muscle was determined. For each muscle, the optimum fiber length (Lf) was calculated by multiplying Lo by a previously determined Lf/Lo ratio of 0.45. Total muscle fiber cross-sectional area was determined by dividing the wet mass by the product of Lf and the density of mammalian skeletal muscle (1.06 mg/mm^3). Maximum isometric specific force (sPo) was determined by dividing Po by the total muscle fiber cross-sectional area.

C[C@]12CCC(=O)C=C1CCC1C2=CC[C@@]2(C)C1CC[C@]2(O)C(=O)CO (stereo partly drawn) [Example 1, (10S,13S,17R)-17-hydroxy-17-(2-hydroxyacetyl)-10,13-dimethyl-6,7,8,10,12,13,14,15,16,17-decahydro-1H-cyclopenta[a]phenanthren-3(2H)-one]
Inflammation of skeletal muscle (H&E histology) (mdx mice [1]): significant decrease
Degeneration of skeletal muscle (H&E histology) (mdx mice [1]): significant decrease
Regeneration / regenerating muscle fibers (H&E histology) (mdx mice [1]): increase in regenerating muscle fibers

C[C@]12C=CC(=O)C=C1CCC1C2=CC[C@@]2(C)C1CC[C@]2(O)C(=O)CO (stereo partly drawn) [Example 2, (10S,13S,17R)-17-hydroxy-17-(2-hydroxyacetyl)-10,13-dimethyl-6,7,8,10,12,13,14,15,16,17-decahydro-3H-cyclopenta[a]phenanthren-3-one]
Inflammation of skeletal muscle (H&E histology) (mdx mice [1]): significant decrease
Degeneration of skeletal muscle (H&E histology) (mdx mice [1]): significant decrease
Regeneration / regenerating muscle fibers (H&E histology) (mdx mice [1]): increase in regenerating muscle fibers

C[C@]12C=CC(=O)C=C1CC[C@@H]1[C@@H]2[C@@H](O)C[C@@]2(C)[C@H]1CC[C@]2(O)C(=O)CO [prednisolone, reference compound]
Body weight versus untreated mice [2]: significantly lower body weight
Degeneration of skeletal muscle (H&E histology) (mdx mice [1]): appeared to increase degeneration
Regeneration / regenerating muscle fibers (H&E histology) (mdx mice [1]): decrease in regeneration
Specific force of EDL muscle, difference to untreated group (mdx mice [3]): no statistically significant (P<0.05) difference
